# Laboratory results reported in patent publication US20260078120A1, “SUBSTITUTED PYRIDOPYRIMIDINONES” (MIRATI THERAPEUTICS, INC., priority 2022, published 2026).
# Assays:
# Assay type in all cases: cell-based
# [1] = tested on: T47D (PI3Kα H1047R mutant) cells; experiment: Inhibition of pAKT formation, alphaLISA SureFire Ultra AKT 1/2/3 (pS473), T47D cells; details: Homo sapiens, T47D, T47D (PI3Kα H1047R mutant) cells; inhibition of pAKT (pS473) formation; approximately one hour or 24 hours treatment; read-out: T47D pAKT (H1047R mutant) IC50
# Procedure, shortened: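 T47D cells (12,000/well) in HBSS were dosed with compound at 10 concentrations (10.4 μM top, 1:4 dilutions) for about 1 h or 24 h at 37 °C, then lysed. pS473 AKT was read by alphaLISA. Signals were normalized to alpelisib and DMSO controls, and IC50 came from a four-parameter fit.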
# [2] = tested on: MKN1 (PI3Kα E545K mutant) cells; experiment: Inhibition of pAKT formation, alphaLISA SureFire Ultra AKT 1/2/3 (pS473), MKN1 cells; details: Homo sapiens, MKN-1; MKN1 (PI3Kα E545K mutant) cells; inhibition of pAKT (pS473) formation; approximately one hour or 24 hours treatment; read-out: MKN1 (E545K) pAKT IC50
# Protocol: The ability of a compound of Formula (I) to inhibit the formation of pAKT was measured using alphaLISA Surefire Ultra AKT 1/2/3 (pS473) Assay Kit (#ALSU-PAKT-B50K) was obtained from Perkin Elmer (Waltham, MA).
# To prepare assay plates for pAKT alphaLISA assays, cells were trypsinized, resuspended in fresh media, and viable cells were counted utilizing trypan blue exclusion. Prior to seeding, cells were washed with PBS and resuspended in HBSS (Gibco, #14025092). T47D (12,000/w), SKBR3(12,000/w), or MKN1(24,000/w) cells were seeded at 12 μl per well in a solid white flat bottom 384 cell culture plate (Perkin Elmer #6007680).
# Immediately after seeding, cells were dosed using an Echo Liquid Handler (Beckman Coulter) with compounds at a […] starting concentration and serially diluted (1:4) for a total of 10 concentrations. […] Cells were incubated with the compounds (solubilized in DMSO) for approximately one hour or 24 hours at 37° C. After one hour (or 24 hours) of treatment, cells were lysed with 3 μl of the 5× lysis buffer (provided and incubated at room temperature for 15 min on a microtiter plate shaker). Once cells were sufficiently lysed, 7.5 μl of the acceptor bead mix (made using the manufacturers recommended dilutions) was added to each well and left on the microtiter plate shaker for 1 min prior to incubating plates at room temperature for one hour, in the absence of light. After one hour of incubation with the acceptor bead mix, 7.5 μl of the donor bead mix (made using the manufacturers recommended dilutions) was added to each well and left on the microtiter plate shaker for 1 min prior to incubating plates at room temperature overnight in the absence of light. Plates were then imaged the following day using a CLARIOstar microplate reader (BMG Labtech, Germany).
# Percent of control values were calculated by subtracting the average signal from the positive control (alpelisib) treated wells from all treated wells (including DMSO control wells) and then divided by the average signal from the vehicle DMSO treated control wells. Percent of vehicle control values were plotted as log (inhibitor) vs. response-Variable slope (four parameters) for curve fitting and IC50 values were determined using XLfit.
# Key: N.D. =not determined
# [3] = tested on: SKBR3 (PI3Kα wild type) cells; experiment: Inhibition of pAKT formation, alphaLISA SureFire Ultra AKT 1/2/3 (pS473), SKBR3 cells; details: Homo sapiens, SK-BR-3; Inhibition of pAKT in SKBR3 (PI3Kα wild type) cells; read-out: SKBR3 (WT) pAKT IC50 (nM) (H1047R mutant) IC50
# Procedure, shortened: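 Cells seeded in HBSS (SKBR3 12,000/well, MKN1 24,000/well) and dosed immediately, 10-point 1:4 series from […], for about 1 h or 24 h at 37 °C. pAKT S473 by alphaLISA after lysis; signal normalised to alpelisib and DMSO controls, IC50 by four-parameter fit.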
# [4] = tested on: T47D (PI3Kα H1047R mutant) cells; experiment: CellTiter-Glo 2.0 luminescent cell viability assay, 72 hours, T47D cells; details: Homo sapiens, T47D, 72 h, T47D (PI3Kα H1047R mutant) cells, CellTiter-Glo, approximately 72 hours; read-out: T47D (H1047R mutant) Viability IC50
# Procedure, shortened: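 Cells seeded at 1000 per well overnight were dosed with a 10-concentration, 1:4 series starting at 10 µM and incubated ~72 h at 37° C. Viability was read by CellTiter-Glo 2.0 luminescence after 30 min at room temperature. IC50 came from four-parameter fits of percent vehicle control.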
# [5] = tested on: MKN1 (PI3Kα E545K mutant) cells; experiment: CellTiter-Glo 2.0 luminescent cell viability assay, 72 hours, MKN1 cells; details: Homo sapiens, MKN-1; MKN1 (PI3Kα E545K mutant) cells, CellTiter-Glo, approximately 72 hours; read-out: MKN1 (E545K) Viability IC50
# Protocol: This Example illustrates that exemplary compounds of the present invention decrease the viability of cells.
# The ability of a compound of Formula (I) to decrease the viability of cells was measured using CellTiter-Glo 2.0 (CTG) Luminescent Cell Viability Assay (#G9241) obtained from Promega (Madison, WI).
# To prepare assay plates for viability assays, cells were trypsinized, resuspended in fresh media, and viable cells were counted utilizing trypan blue exclusion. T47D, SKBR3, or MKN1 cells were seeded at 1000 cells in 30 μl per well in a solid white flat bottom 384 cell culture plate (Perkin Elmer #6007680) and incubated at 37° C. overnight.
# Assay day 1, cells were dosed using an Echo Liquid Handler (Beckman Coulter) with compounds at a 10 um starting concentration and serially diluted (1:4) for a total of 10 concentrations. Cells were incubated for approximately 72 hours with the compounds (solubilized in DMSO) at 37° C. After 72 hours of treatment, cell plates were equilibrated to room temperature before adding 15 μl of CTG to each well, plates were then covered in aluminum foil to protect from light, incubated at room temperature for 30 minutes on a microtiter plate shaker, and luminescence readings were collected using a CLARIOstar microplate reader (BMG Labtech, Germany). Percent of vehicle control values were plotted as log (inhibitor) vs. response-Variable slope (four parameters) for curve fitting and IC50 values were determined using XLfit.
# [6] = tested on: SKBR3 (PI3Kα wild type) cells; experiment: CellTiter-Glo 2.0 luminescent cell viability assay, 72 hours, SKBR3 cells; details: Homo sapiens, SK-BR-3, 72 h, SKBR3 (PI3Kα wild type) cells, CellTiter-Glo, approximately 72 hours; read-out: SKBR3 (WT) Viability IC50
# Procedure, shortened: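 Viability measured via CTG luminescence following roughly 72 hours of compound exposure at 37° C. Dosing used a 10 um starting concentration diluted 1:4 over 10 points; percent-of-vehicle data fitted with a variable-slope four-parameter model for IC50.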
Compound,IC50 [1] [µM],IC50 [2] [µM],IC50 [3] [nM],IC50 [4] [µM],IC50 [5] [µM],IC50 [6] [µM]
"COc1ccc(C(=O)O)c(NC(C)c2cc(C)cn3c(=O)cc(N4CCCCC4)nc23)c1 (stereo not drawn) [Example 3-7, 4-methoxy-2-((1-(7-methyl-4-oxo-2-(piperidin-1-yl)-4H-pyrido[1,2-a]pyrimidin-9-yl)ethyl)amino)benzoic acid]",> 10,> 10,8030,> 10,> 10,> 10
"Cc1cc(C(C)Nc2cc(O)ccc2C(=O)O)c2nc(N3CCCCC3)cc(=O)n2c1 (stereo not drawn) [Example 3-8, 4-hydroxy-2-((1-(7-methyl-4-oxo-2-(piperidin-1-yl)-4H-pyrido[1,2-a]pyrimidin-9-yl)ethyl)amino)benzoic acid]",3,> 10,> 10000,> 10,> 10,> 10
"Cc1cc(C(C)Oc2ccccc2C(=O)O)c2nc(N3CCCCC3)cc(=O)n2c1 (stereo not drawn) [Example 3-9, 2-(1-(7-methyl-4-oxo-2-(piperidin-1-yl)-4H-pyrido[1,2-a]pyrimidin-9-yl)ethoxy)benzoic acid]",> 10,> 10,583,> 10,> 10,> 10
"Cc1cc(C(C)Nc2ccccc2C(=O)N(C)C)c2nc(N3CCCCC3)cc(=O)n2c1 (stereo not drawn) [Example 3-15, N,N-dimethyl-2-((1-(7-methyl-4-oxo-2-(piperidin-1-yl)-4H-pyrido[1,2-a]pyrimidin-9-yl)ethyl)amino)benzamide]",> 10,> 10,> 10000,> 10,> 10,> 10
"Cc1cc(C(C)Nc2ccccc2C(O)C(F)(F)F)c2nc(N3CCCCC3)cc(=O)n2c1 (stereo not drawn) [Example 3-18, 7-methyl-2-(piperidin-1-yl)-9-(1-((2-(2,2,2-trifluoro-1-hydroxyethyl)phenyl)amino)ethyl)-4H-pyrido[1,2-a]pyrimidin-4-one]",1.39,> 10,> 10000,4.2,> 10,> 10
"Cc1cc(C(C)Nc2ccc(Cl)nc2C(=O)O)c2nc(N3CCCCC3)cc(=O)n2c1 (stereo not drawn) [Example 3-19, 6-chloro-3-((1-(7-methyl-4-oxo-2-(piperidin-1-yl)-4H-pyrido[1,2-a]pyrimidin-9-yl)ethyl)amino)picolinic acid]",0.0383,1.19,2800,0.367,> 10,> 10
"Cc1cc(C(C)Nc2ccccc2C(F)(F)CO)c2nc(N3CCCCC3)cc(=O)n2c1 (stereo not drawn) [Example 3-20, 9-(1-((2-(1,1-difluoro-2-hydroxyethyl)phenyl)amino)ethyl)-7-methyl-2-(piperidin-1-yl)-4H-pyrido[1,2-a]pyrimidin-4-one]",1.12,> 10,> 10000,> 10,> 10,> 10
"C=CC(=O)NC(C)c1cc(C)cn2c(=O)cc(N3CCCCC3)nc12 (stereo not drawn) [Example 4-1, N-(1-(7-methyl-4-oxo-2-(piperidin-1-yl)-4H-pyrido[1,2-a]pyrimidin-9-yl)ethyl)acrylamide]",> 10,> 10,> 10000,> 10,> 10,> 10

# Further lines, results first:
IC50 [1] [µM],IC50 [2] [µM],IC50 [3] [nM],IC50 [4] [µM],IC50 [5] [µM],IC50 [6] [µM],Compound
> 10,> 10,> 10000,> 10,> 10,> 10,"Cc1cc(C(C)Nc2ccccc2C#N)c2nc(N3CCCCC3)cc(=O)n2c1 (stereo not drawn) [Example 3-11, 2-((1-(7-methyl-4-oxo-2-(piperidin-1-yl)-4H-pyrido[1,2-a]pyrimidin-9-yl)ethyl)amino)benzonitrile]"
1.97,> 10,44.3,5.76,> 10,> 10,"COC(=O)c1ccccc1NC(C)c1cc(C)cn2c(=O)cc(N3CCCCC3)nc12 (stereo not drawn) [Example 3-12, methyl 2-((1-(7-methyl-4-oxo-2-(piperidin-1-yl)-4H-pyrido[1,2-a]pyrimidin-9-yl)ethyl)amino)benzoate]"
1.06,3.99,> 10000,> 10,> 10,> 10,"Cc1cc(C(C)Nc2ccccc2C(N)=O)c2nc(N3CCCCC3)cc(=O)n2c1 (stereo not drawn) [Example 3-13, 2-((1-(7-methyl-4-oxo-2-(piperidin-1-yl)-4H-pyrido[1,2-a]pyrimidin-9-yl)ethyl)amino)benzamide]"
4.54,2.91,> 10000,1.36,> 10,> 10,"CNC(=O)c1ccccc1NC(C)c1cc(C)cn2c(=O)cc(N3CCCCC3)nc12 (stereo not drawn) [Example 3-14, N-methyl-2-((1-(7-methyl-4-oxo-2-(piperidin-1-yl)-4H-pyrido[1,2-a]pyrimidin-9-yl)ethyl)amino)benzamide]"
> 10,> 10,> 10000,> 10,> 10,9.3,"Cc1cc(C(C)Nc2ccccc2O)c2nc(N3CCCCC3)cc(=O)n2c1 (stereo not drawn) [Example 3-16, 9-(1-((2-hydroxyphenyl)amino)ethyl)-7-methyl-2-(piperidin-1-yl)-4H-pyrido[1,2-a]pyrimidin-4-one]"
> 10,> 10,> 10000,> 10,> 10,9.77,"Cc1cc(C(C)Nc2cccc3cn[nH]c23)c2nc(N3CCCCC3)cc(=O)n2c1 (stereo not drawn) [Example 3-17, 9-(1-((1H-indazol-7-yl)amino)ethyl)-7-methyl-2-(piperidin-1-yl)-4H-pyrido[1,2-a]pyrimidin-4-one]"
